Experimental data: article PMC10380488, “Cx43 Hemichannel and Panx1 Channel Modulation by Gap19 and ^10Panx1 Peptides” (International Journal of Molecular Sciences, 2023)
Values joined by “and” are separate entries in the source; they are usually repeats but may differ in a detail not shown here. Equal entries are not always repeated. “Also recorded” adds a separate entry of the source.

Columns and labels:
Panx1 channels [1] = molecular target: T1, Panx1 channels (Rattus norvegicus, UniProt P60570); settings: 200 µM extracellular; high extracellular K^+; cited from earlier work
T1 construct: expressed in transfected cells; host or cells: C6 glioma cells (C6-Panx1), gift of Dr Christian C; Naus
Source text: (§1) Connexins and pannexins are two ubiquitous but distinct protein families forming membrane hemichannels (HCs) and channels in the plasma membrane, respectively. They facilitate the exchange of ions and small molecules (MW ≤ 1.5 kDa) between the intracellular and the extracellular compartment upon opening. Among these respective families, connexin-43 (Cx43) and pannexin-1 (Panx1) are the most abundant isotypes in the human body expressed in a wide array of tissues. Panx1 and Cx43 have several common properties, including the following: (i) an analogous tetra-spanning transmembrane topology with ...

Cx43 or Panx1 channels = settings: 100 μM extracellular; HeLa cells expressing Cx43 or Panx1; cited from earlier work
Source text: as §1

Cx46 HC = settings: cited from earlier work
Source text: as §1

Cx43 HCs = assay: Whole-cell patch-clamp, unitary Cx43 hemichannel current activity in HeLa-Cx43 cells; type: cell-based; settings: for nominal open probability (NPo) of Cx43 HCs: preincubated 45 min, HeLa-Cx43, step −30 to +70 mV, 30 s, mean ± SEM, control 0.48 ± 0.02; for reduction of NPo of Cx43 HCs: vs control; for conductance γ of Cx43 HC, subconductance state, transition histogram / unitary conductance γ of Cx43 HC, fully open state, transition histogram: Figure 3B, mean ± SD
Source text: (§2) We used HeLa cells stably transfected with Cx43 (HeLa-Cx43 [56]); endogenous expression of Panx1 is very low or absent in non-transfected HeLa cells. C6 glioma cells stably transfected with Panx1 (C6-Panx1, C-terminally myc-tagged; kind gift of Dr Christian C. Naus, University of British Columbia, Canada) were used for the Panx1 channel studies; Cx43 expression is low or undetectable [61] in these cells. HeLa cells were maintained in Dulbecco’s modified Eagle’s medium (DMEM; Invitrogen, Gent, Belgium), and C6 cells were grown in DMEM:Ham’s F12 (1:1—Invitrogen, Merelbeke, Belgium), all supplemented with 10% fetal bovine serum (FBS), 2 mM glutamine, 10 U/mL penicillin, 10 µg/mL streptomycin and 0.25 µg/mL fungizone. Stable exogenous expressions were maintained by supplementation of 1 and 3 µg/mL puromycin (Sigma-Aldrich, Bornem, Belgium) for HeLa-Cx43 and C6-Panx1 cells, respectively. Stable transfectants were subcultured into puromycin-free medium 2 days prior to experimentation. Cells were maintained at 37 °C and 10% (HeLa-Cx43) or 5% (C6-Panx1) CO2.
(§3) All experimental data were obtained with the patch-clamp technique in whole-cell recording mode on HeLa-Cx43 and C6-Panx1 cells. Extracellular solution was composed of the following (in mM): 150 NaCl, 4 CsCl, 2 CaCl2, 2 MgCl2, 2 pyruvic acid, 5 glucose and 5 HEPES at pH of 7.4, while the pipette solution consisted of the following (in mM): 125 CsCl, 10 sodium aspartate (NaAsp), 0.26 CaCl2, 1 MgCl2, 2 EGTA, 10 tetraethylammonium (TEA)-Cl and 5 HEPES at pH 7.2. The free Ca^2+ concentration of the pipette solution was estimated to be ~50 nM as calculated with WEBMAX (https://somapp.ucdmc.ucdavis.edu/pharmacology/bers/maxchelator/webmaxc/webmaxcS.htm; accessed on 20 September 2020). Whole-cell recording was performed under control conditions and in the presence of Gap19 or ^10Panx1. Gap19 was included in the pipette solution, while ^10Panx1 was added externally and preincubated for 45 min. Recordings were commenced 2 min after establishment of the whole-cell configuration. Currents were recorded with an EPC 7 PLUS patch-clamp amplifier (HEKA Elektronik, Germany). Unitary current activities were elicited by stepping the cells from a holding potential of −30 mV to a membrane potential (Vm) of +70 mV for 30 s. Data were digitized at 4 KHz using an NI USB-6221 data acquisition device (National Instruments, Austin, TX, USA) and WinWCP acquisition software designed by Dr. J. Dempster (University of Strathclyde, United Kingdom). Measured currents were filtered by a 7-pole Bessel low-pass filter at 1 KHz cut-off frequency. Transition analysis was performed as reported in [16]. Unitary channel conductances were determined from transition histograms as well as from all-point histograms and were obtained by fitting their frequencies to Gaussian distributions. Channel opening activity is expressed as nominal open probability NPo, denoting the number of active channels in the patch multiplied by the open probability.
(§4) Data were processed using Clampfit version 11.2 (Molecular Devices, San Jose, USA) and HemiGUI software as previously described. Results are expressed as mean ± SEM (unless otherwise stated), with n giving the number of traces, N the number of cells, and N the number of experiments on different cell culture dishes. Multiple groups were compared by one-way analysis of variance with post-hoc Dunnett’s or Bonferroni multiple comparison tests, making use of GraphPad PRISM 5.0 (GraphPad Software, Inc., La Jolla, CA). Results were considered statistically significant when p ≤ 0.05 (*; # for p ≤ 0.05, **; ## for p ≤ 0.01, ***; ### for p ≤ 0.001, and ****; #### for p ≤ 0.0001).

Panx1 channel = settings: some evidence; cited from earlier work
Source text: The representative traces depicted in Figure 1A (enlarged display in Supplementary Figure S1) show unitary Panx1 current activities evoked by repeated (every 40 s) Vm steps from a holding potential of −30 mV to +70 mV (with a duration of 30 s) in voltage-clamp experiments (using whole-cell patch-clamp recording). Under control conditions, a single channel conductance of ~65 pS was observed as determined from the channel transition histograms shown in Figure 1B, i.e., below the 100 pS range, which is typical for voltage-dependent Panx1 channel-opening activity. We tested the effec ...

Panx1 channels [2] = molecular target: T1, Panx1 channels; assay: Whole-cell patch-clamp, unitary Panx1 channel current activity in C6-Panx1 cells; type: cell-based; settings: for nominal open probability (NPo) of Panx1 channels: preincubated 45 min, C6-Panx1, step −30 to +70 mV, 30 s, mean ± SEM, control 0.37 ± 0.02; for reduction of NPo of Panx1 channels: vs control
Source text: as §2, §3, §4

[3] = 100 μM ^10Panx1 extracellular, N = 12, n = 88
[4] = 200 μM ^10Panx1 extracellular, N = 11, n = 97

T1 sequence (P60570 whole entry): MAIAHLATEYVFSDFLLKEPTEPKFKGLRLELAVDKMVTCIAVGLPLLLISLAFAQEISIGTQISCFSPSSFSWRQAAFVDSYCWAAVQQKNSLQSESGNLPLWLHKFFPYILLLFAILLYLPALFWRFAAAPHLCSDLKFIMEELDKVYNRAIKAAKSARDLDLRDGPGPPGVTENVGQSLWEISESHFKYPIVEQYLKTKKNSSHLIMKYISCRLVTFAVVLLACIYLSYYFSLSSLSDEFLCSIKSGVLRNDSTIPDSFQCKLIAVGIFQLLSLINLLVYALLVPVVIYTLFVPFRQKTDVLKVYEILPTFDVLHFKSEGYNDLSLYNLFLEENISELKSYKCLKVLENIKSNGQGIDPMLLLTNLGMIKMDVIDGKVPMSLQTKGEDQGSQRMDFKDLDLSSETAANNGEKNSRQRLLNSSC

Which “effect on ATP release from Panx1-overexpressing cells” value (Panx1 channels [1]) does the source give for WRQAAFVDSY [^10Panx1] here?
Its value is “inhibits ATP release”.

What about the “selectivity for Cx43 or Panx1 channels” value (Cx43 or Panx1 channels) of the same sequence?
The value was “good selectivity”.

What about the “effect on Cx46 HC peak currents” value (Cx46 HC) of the same sequence?
The value was “partially inhibit Cx46 HC peak currents”.

And the “nominal open probability (NPo) of Cx43 HCs” value (Cx43 HCs; 100 μM ^10Panx1 extracellular, N = 12 cells, n = 88 traces)?
The value was 0.30 ± 0.03.

What about the “reduction of NPo of Cx43 HCs” value (Cx43 HCs; 100 μM ^10Panx1 extracellular, significant) of the same sequence?
Its value is 37%.

What about the “nominal open probability (NPo) of Cx43 HCs” value (Cx43 HCs; 200 μM ^10Panx1 extracellular, N = 11 cells, n = 97 traces) of the same sequence?
The value was 0.08 ± 0.01.

And the “reduction of NPo of Cx43 HCs” value (Cx43 HCs; 200 μM ^10Panx1 extracellular)?
The value was ~ 83% and 83%.

And the “nominal open probability (NPo) of Cx43 HCs” value (Cx43 HCs; 500 μM ^10Panx1 extracellular, N = 8 cells, n = 53 traces)?
Its value is 0.03 ± 0.01.

What about the “reduction of NPo of Cx43 HCs” value (Cx43 HCs; 500 μM ^10Panx1 extracellular) of the same sequence?
The value was 94%.

And the “conductance γ of Cx43 HC, subconductance state, transition histogram” value (Cx43 HCs; [3])?
The value was 81 ± 29 pS.

And the “unitary conductance γ of Cx43 HC, fully open state, transition histogram” value (Cx43 HCs; [3])?
Its value is 202 ± 57 pS.

What about the “conductance γ of Cx43 HC, subconductance state, transition histogram” value (Cx43 HCs; [4]) of the same sequence?
The value was 78 ± 27 pS.

And the “unitary conductance γ of Cx43 HC, fully open state, transition histogram” value (Cx43 HCs; [4])?
The value was 216 ± 74 pS.

And the “conductance γ of Cx43 HC, all-point histogram” value (Cx43 HCs; Figure 3C, 100 μM ^10Panx1 extracellular)?
The value was 201 ± 36 pS.

And the “inhibition of Cx43 HC opening activity (in words)” value (Cx43 HCs; Gap19 intracellular / ^10Panx1 extracellular, 100-500 μM (Gap19 100–200 μM))?
Its value is “Inhibited; also recorded: concentration-dependent and significant inhibition; also recorded: inhibits Cx43 HCs over the 100–500 µM concentration range”.

And the “effect on Cx43 HC gating (fully open state vs subconductance state)” value (Cx43 HCs; Gap19 intracellular / ^10Panx1 extracellular, from 100 µM)?
Its value is “increasing the frequency of subconductance transitions while decreasing the frequency of transitions to the fully open state; also recorded: reduced the propensity of gating to the main open state but increased the incidence of gating to the HC subconductance state”.

And the “relative reduction of Cx43 HC function vs Panx1 channel function (selectivity)” value (Cx43 HCs; ^10Panx1 extracellular, all the concentrations tested (100, 200, 500 μM))?
Its value is “more strongly reduces Cx43 HC function than Panx1 channel function at all the concentrations tested”.

And the “interaction with the pore of the channel protein” value (Panx1 channel)?
Its value is “some evidence pointing to an interaction with the pore of the channel protein”.

And the “flickering frequency (fast-flickering closures) of Panx1 channel” value (from here on “flickering frequency”) (Panx1 channels [2]; 100 µM ^10Panx1 extracellular)?
Its value is 67 Hz.

What about the “nominal open probability (NPo) of Panx1 channels” value (Panx1 channels [2]; 100 μM ^10Panx1 extracellular, N = 11 cells, n = 106 traces) of the same sequence?
The value was 0.28 ± 0.03.

And the “reduction of NPo of Panx1 channels” value (Panx1 channels [2]; 100 μM ^10Panx1 extracellular)?
Its value is 26.0% and ~ 25%.

And the “flickering frequency” value (Panx1 channels [2]; 200 µM ^10Panx1 extracellular)?
Its value is 84 Hz.

And the “nominal open probability (NPo) of Panx1 channels” value (Panx1 channels [2]; 200 μM ^10Panx1 extracellular, N = 12 cells, n = 116 traces)?
Its value is 0.19 ± 0.01.

What about the “reduction of NPo of Panx1 channels” value (Panx1 channels [2]; 200 μM ^10Panx1 extracellular) of the same sequence?
The value was 49.5%.

And the “flickering frequency” value (Panx1 channels [2]; 500 µM ^10Panx1 extracellular)?
The value was 146 Hz.

What about the “nominal open probability (NPo) of Panx1 channels” value (Panx1 channels [2]; 500 μM ^10Panx1 extracellular, N = 11 cells, n = 76 traces) of the same sequence?
Its value is 0.13 ± 0.02.

And the “reduction of NPo of Panx1 channels” value (Panx1 channels [2]; 500 μM ^10Panx1 extracellular)?
The value was 66.0%.

And the “inhibition of Panx1 channel-opening activity (in words)” value (Panx1 channels [2]; ^10Panx1 extracellular, 100, 200 and 500 µM)?
The value was “Concentration-Dependently Inhibited”.

What about the “effect on open-state events of Panx1, all-point histograms” value (Panx1 channels [2]; ^10Panx1 extracellular, 100 and 200 μM, Figure 1C) of the same sequence?
Its value is “clearly decreased the frequency of open-state events; also recorded: open-state peaks decreased in height while the closed-state peaks increased”.

And the “subconductance gating of Panx1 channels” value (Panx1 channels [2]; ^10Panx1 extracellular, Figure 1)?
Its value is “did not induce the subconductance gating of Panx1 channels”.
